PMC3804772, “Rational Design, Synthesis, and Biological Evaluation of Third Generation α-Noscapine Analogues as Potent Tubulin Binding Anti-Cancer Agents” (PLoS ONE, 2013)
Read-outs that look alike come from different tables or passages of the source.

How the values were obtained:
tubulin [1] = assay: Tubulin binding of noscapine and previously reported noscapinoids (literature values); conditions: Table 1; calculated from KD, ΔGbind = RT ln KD, T = 298 K
Experimental: Here ⟨ ⟩ represent the ensemble average, b represents the bound form of the ligand, f represents the free form of the ligand, and α, β, and γ are the coefficients. U vdw, U elec, and U cav are the van der Waals, electrostatic, and cavity energy terms in the SGB continuum solvent model. The cavity energy term, U cav, is proportional to the exposed surface area of the ligand. Various energy parameters included in equation 1 were calculated from the docked complex corresponding to each analogue using Liaison package as described previously. The average LIE energy terms were used for building the binding affinity model and estimation of binding free energies of noscapine derivatives. The α, β, and γ LIE fitting parameters were determined using Minitab statistical package (version 16.0, Minitab Inc.) by fitting the experimental binding affinities of training set molecules. A dataset consisting of 7 noscapine derivatives (compounds: 1, 2a-f; Figure 2) with known experimental binding affinities was used as a training set.

tubulin [2] = conditions: cited from earlier work
tubulin [3] = target: T1, tubulin (Bos taurus, UniProt P81947+Q6B856); assay: Tubulin binding assay (quenching of intrinsic tryptophan fluorescence); parameters: species or system bovine; conditions: for Kd: 2 µM tubulin, PEM buffer pH 6.8, 37 °C, 45 min, mean ± S.D.; for Experimental ΔGbind: calculated from KD, ΔGbind = RT ln KD, T = 298 K
T1 construct: Tubulin devoid of microtubule-associated proteins (MAPs) was purified from bovine brain; from tissue; host or cells: bovine brain
Experimental: Tubulin devoid of microtubule-associated proteins (MAPs) was purified from bovine brain by cycles of temperature-dependent polymerization and depolymerization as described previously followed by phosphocellulose chromatography. The concentration of the tubulin was determined by the method of Bradford using BSA as the standard. Purified tubulin was quickly frozen as drops in liquid nitrogen and stored at - 80 °C until used.
Noscapinoids quench the […] intrinsic tryptophan fluorescence of tubulin in a concentration-dependent fashion as described previously. This has allowed an easy method for measuring the tubulin-noscapinoids interactions. Briefly, the compounds 5a, 6a-j (0-200 µM) were incubated with 2 µM tubulin in PEM buffer (100 mM PIPES, pH 6.8, 3 mM MgSO4, and 1 mM EGTA) at 37 °C for 45 min. After incubation, the samples were excited at 295 nm. The relative intrinsic fluorescence intensity of the tubulin was then monitored in the absence and presence of the compound 5a, 6a-j using a Varian Cary Eclipse Fluorescence Spectrophotometer (Agilent Technologies, CA, USA). The emission readings were recorded at 335 nm. We used a 0.3 cm path-length cuvette to minimize the inner filter effects caused by the absorbance of the noscapinoids. In addition, the inner filter effects were corrected using a formula F corrected = F observed·antilog [(A ex + A em)/2], where A ex is the absorbance at the excitation wavelength and A em is the absorbance at the emission wavelength. The equilibrium dissociation constant (KD) was determined by the formula: 1/a = KD/[free ligand] + 1, where a is the fractional occupancy and [free ligand] is the concentration of free ligand. The fractional occupancy (a) was determined by the formula a = ΔF/ΔF max, where ΔF is the change in fluorescence intensity when tubulin and its ligand are in equilibrium and ΔF max is the value of maximum fluorescence change when tubulin is completely bound with its ligand. ΔF max was calculated by plotting 1/ΔF versus 1/ligand, using total ligand concentration as the first estimate of free ligand concentration. Three independent experiments were performed for each noscapinoid.

[4] = test system: human lymphoblast cell line (CEM); assay: In vitro cell proliferation assay (SRB), CEM; type: cell-based; conditions: 72 h, mean ± S.D.
Experimental: (§1) The cell proliferation assay was performed in 96-well plates as described previously. A panel of four cancer cell lines of different tissues of origins, namely: human lung adenocarcinoma epithelial cell line (A549), human lymphoblast cell line (CEM), human cervix cell line (HeLa) and human breast epithelial cell line (MCF-7) were studied. These cell lines were obtained from the National Repository of Animal Cell Culture, National Centre for Cell Sciences, Pune (NCCS), India. Briefly, 2 x10^3 cells were seeded in each well and were incubated with gradient concentrations of 5a, 6a-j compounds for 72 h. The cells were then fixed with 50% trichloroacetic acid and stained with 0.4% sulforhodamine B (SRB) dissolved in 1% acetic acid. Cells were then washed with1% acetic acid to remove excess (unbound) SRB. The protein-bound SRB was dissolved with 10 mM Tris base and the absorbance at 564 nm was determined using a SPECTRAmax PLUS 384 microplate spectrophotometer.

[5] = test system: human cervix cell line (HeLa); assay: In vitro cell proliferation assay (SRB), HeLa; type: cell-based; conditions: 72 h, mean ± S.D.
Experimental: as §1

[6] = test system: human lung adenocarcinoma epithelial cell line (A549); assay: In vitro cell proliferation assay (SRB), A549; type: cell-based; conditions: 72 h, mean ± S.D.
Experimental: as §1

[7] = test system: human breast epithelial cell line (MCF-7); assay: In vitro cell proliferation assay (SRB), MCF-7; type: cell-based; conditions: MCF7, 72 h, mean ± S.D.
Experimental: as §1

MCF-7 cells = assay: Cell cycle analysis by flow cytometry (propidium iodide); type: cell-based, human; conditions: MCF-7, 25 µM
Experimental: The flow cytometric evaluation of the cell cycle status was performed as described previously. Briefly, cells (2 x 10^6) treated with the noscapinoids up to 72 h were centrifuged, washed twice with cold PBS, and fixed in 70% ethanol. Tubes containing the cell pellets were stored at 4 °C for minimum of 24 h. Cells were then centrifuged at 1000 x g for 10 min and the supernatant was discarded. The pellets were washed twice with 5 ml of PBS and then stained with 0.5 ml of propidium iodide (0.1% of Pl + 0.6% Triton-X in PBS) and 0.5 ml of RNase A (2 mg/ml) for 45 minutes in dark. Samples were then analyzed on a FACS Calibur flow cytometer ([…]).

[8] = Table 1, training set with known experimental binding affinities, mean ± S.D., read-out: KD value

T1 sequence (Q6B856 whole entry): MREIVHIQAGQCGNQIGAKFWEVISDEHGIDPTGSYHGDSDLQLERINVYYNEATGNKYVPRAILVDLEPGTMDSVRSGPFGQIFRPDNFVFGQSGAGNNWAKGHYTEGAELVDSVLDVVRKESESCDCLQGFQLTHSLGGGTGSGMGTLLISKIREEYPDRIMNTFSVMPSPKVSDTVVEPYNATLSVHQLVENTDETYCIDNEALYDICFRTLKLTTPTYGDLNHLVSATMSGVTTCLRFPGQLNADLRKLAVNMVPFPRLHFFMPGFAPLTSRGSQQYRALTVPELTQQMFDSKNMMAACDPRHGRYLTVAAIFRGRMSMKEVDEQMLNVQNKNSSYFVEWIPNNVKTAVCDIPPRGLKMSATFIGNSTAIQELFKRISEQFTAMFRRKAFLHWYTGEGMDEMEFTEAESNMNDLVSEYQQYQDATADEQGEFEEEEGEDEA
T1 sequence (P81947 whole entry): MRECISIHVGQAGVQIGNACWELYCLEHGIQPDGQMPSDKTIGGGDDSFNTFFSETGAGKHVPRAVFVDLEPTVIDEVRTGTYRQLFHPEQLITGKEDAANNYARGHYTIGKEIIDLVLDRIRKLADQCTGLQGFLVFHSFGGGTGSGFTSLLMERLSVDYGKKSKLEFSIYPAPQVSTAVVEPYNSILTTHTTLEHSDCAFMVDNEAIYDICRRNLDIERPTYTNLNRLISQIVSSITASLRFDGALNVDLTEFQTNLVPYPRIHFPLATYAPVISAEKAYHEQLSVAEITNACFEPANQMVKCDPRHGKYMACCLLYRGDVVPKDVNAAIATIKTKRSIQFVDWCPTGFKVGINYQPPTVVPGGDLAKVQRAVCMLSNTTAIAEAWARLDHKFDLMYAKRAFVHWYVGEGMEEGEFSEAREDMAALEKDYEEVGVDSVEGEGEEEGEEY

SMILES	Experimental ΔGbind (tubulin [1])	Kd (tubulin [2]; [8])	Kd (tubulin [3])	Experimental ΔGbind (tubulin [3])	IC50 [4]	IC50 [5]	IC50 [6]	IC50 [7]	Cell cycle parameters % G0/G1, 24 hours (MCF-7 cells)	Cell cycle parameters % G2/M, 24 hours (MCF-7 cells)	Cell cycle parameters % S, 24 hours (MCF-7 cells)	Cell cycle parameters % Sub-G1, 24 hours (MCF-7 cells)	Cell cycle parameters % G0/G1, 72 hours (MCF-7 cells)	Cell cycle parameters % G2/M, 72 hours (MCF-7 cells)	Cell cycle parameters % S, 72 hours (MCF-7 cells)	Cell cycle parameters % Sub-G1, 72 hours (MCF-7 cells)	melting point	Binding stoichiometry, noscapine molecule per tubulin dimer (tubulin [2])	Kd (tubulin [2]; values quoted in the text for comparison, read-out: Equilibrium dissociation constant (KD))
COc1ccc2c(c1OC)C(=O)O[C@@H]2[C@H]1c2c(c([N+](=O)[O-])c3c(c2OC)OCO3)CCN1C [Compound 2e]	-5.551 kcal/mol	86 ± 6 µM																	
COC(=O)CN1CCc2cc3c(c(OC)c2[C@@H]1[C@H]1OC(=O)c2c1ccc(OC)c2OC)OCO3 [Compound 6i, Methyl 2-((R)-5-((S)-4,5-dimethoxy-3-oxo-1,3-dihydroisobenzofuran-1-yl)-4-methoxy-7,8-dihydro-[1,3]dioxolo[4,5-g]isoquinolin-6(5H)-yl)acetate]			79 ± 8 µM	-5.602 kcal/mol	9.5 ± 0.7 µM	22.3 ± 1.2 µM	45.4 ± 2.5 µM	36 ± 1.9 µM	19.57%	63.38%	4.62%	12.25%	14.37%	37.15%	6.43%	40.18%	155 °C		
CCOC(=O)CN1CCc2cc3c(c(OC)c2[C@@H]1[C@H]1OC(=O)c2c1ccc(OC)c2OC)OCO3 [Compound 6j, Ethyl 2-((R)-5-((S)-4,5-dimethoxy-3-oxo-1,3-dihydroisobenzofuran-1-yl)-4-methoxy-7,8-dihydro-[1,3]dioxolo[4,5-g]isoquinolin-6(5H)-yl)acetate]			228 ± 10 µM	-4.973 kcal/mol	13.6 ± 1.3 µM	32.4 ± 2.4 µM	72.3 ± 3.5 µM	52.6 ± 3.8 µM	25.71%	66.17%	3.09%	8.29%	22.16%	39.48%	8.63%	27.24%	92 °C		
COc1ccc2c(c1OC)C(=O)O[C@@H]2[C@H]1c2c(cc3c(c2OC)OCO3)CCN1Cc1ccc([N+](=O)[O-])cc1 [Compound 6c, (S)-6,7-dimethoxy-3-((R)-4-methoxy-6-(4-nitrobenzyl)-5,6,7,8-tetrahydro-[1,3]dioxolo[4,5-g]isoquinolin-5-yl)isobenzofuran-1(3H)-one]			91 ± 8 µM	-5.518 kcal/mol	10 ± 0.8 µM	23.7 ± 1.5 µM	49 ± 2.5 µM	38.2 ± 2.5 µM	20.72%	63.49%	4.85%	8.08%	15.38%	38.41%	8.27%	36.73%	154 °C		
COc1ccc2c(c1OC)C(=O)O[C@@H]2[C@H]1c2c(c(I)c3c(c2OC)OCO3)CCN1C [Compound 2d]	-6.360 kcal/mol	22 ± 4 µM																	
COc1ccc2c(c1OC)C(=O)O[C@@H]2[C@H]1c2c(c(Br)c3c(c2OC)OCO3)CCN1C [Compound 2c, 9-bromonoscapine]	-5.827 kcal/mol	54 ± 9.1 µM																	
COc1ccc2c(c1OC)C(=O)O[C@@H]2[C@H]1c2c(cc3c(c2OC)OCO3)CCN1Cc1ccc(Br)cc1 [Compound 6b, 5(S)-3-((R)-6-(4-bromobenzyl)-4-methoxy-5,6,7,8-tetrahydro-[1,3]dioxolo[4,5-g]isoquinolin-5-yl)-6,7-dimethoxyisobenzofuran-1(3H)-one]					9 ± 0.4 µM	21.2 ± 2.1 µM	42.4 ± 2.3 µM	34.1 ± 1.6 µM	19.42%	64.42%	4.16%	7.37%	11.38%	35.84%	7.53%	43.18%	76 °C		
COc1ccc2c(c1OC)C(=O)O[C@@H]2[C@H]1c2c(c(Cl)c3c(c2OC)OCO3)CCN1C [Compound 2b]	-6.006 kcal/mol	40 ± 8 µM																	
COc1ccc2c(c1OC)C(=O)O[C@@H]2[C@H]1c2c(c(N=[N+]=[N-])c3c(c2OC)OCO3)CCN1C [Compound 2f]	-6.628 kcal/mol	14 ± 1 µM																	
COc1ccc2c(c1OC)C(=O)O[C@@H]2[C@H]1c2c(c(F)c3c(c2OC)OCO3)CCN1C [Compound 2a]	-5.587 kcal/mol	81 ± 8 µM																	
COc1ccc2c(c1OC)C(=O)O[C@@H]2[C@H]1c2c(cc3c(c2OC)OCO3)CCN1Cc1cccc(Cl)c1 [Compound 6e, (S)-3-((R)-6-(3-chlorobenzyl)-4-methoxy-5,6,7,8-tetrahydro-[1,3]dioxolo[4,5-g]isoquinolin-5-yl)-6,7-dimethoxyisobenzofuran-1(3H)-one]					7.5 ± 0.6 µM	17.3 ± 0.7 µM	32.1 ± 1.6 µM	27.8 ± 1.3 µM	12.84%	68.42%	4.57%	8.17%	7.02%	38.52%	6.83%	45.42%	62 °C		
COc1ccc2c(c1OC)C(=O)O[C@@H]2[C@H]1c2c(cc3c(c2OC)OCO3)CCN1C [Compound 1, noscapine]	-5.246 kcal/mol				14.5 ± 2.5 µM	24 ± 2.9 µM	72.9 ± 4.6 µM	42.3 ± 2.7 µM	19.48%	62.38%	4.19%	7.24%	19.05%	37.36%	8.53%	30.62%		0.95 ± 0.02	144 ± 1 µM
